Assay results: patent US20230277550A1, “Methods for Treating Respiratory Diseases Characterized by Mucus Hypersecretion” (The Board of Trustees of the Leland Stanford Junior …, priority 2020, published 2023)

Tests used:
[1] = test system: Primary human airway epithelial cells; assay: MCC formation with a variety of GSIs at high and low concentrations; assay type: cell-based; settings: for epithelial structure: high concentrations; for epithelial structure / multiciliated cell formation: ALI+0 to +21d; for multiciliated cell formation: low concentration; for Notch signaling and differentiation towards MCCs: nanomolar range, human nasal epithelial cells
[2] = test system: primary human nasal epithelial cells (HNECs); assay: Semagacestat dose response on multiciliated cell (MCC) formation in HNEC ALI cultures; assay type: cell-based; settings: 1 µM DAPT; p <0.01 by ANOVA with Dunnett's test
Description: Air-Liquid Interface (ALI) cultures were prepared as described in Vladar EK, Nayak JV, Milla CE, Axelrod JD. Airway epithelial homeostasis and planar cell polarity signaling depend on multiciliated cell differentiation. JCI Insight. 2016;1(13);e88027. Human nasal epithelial cells (HNECs) were generated from human sinonasal epithelial brushings or from tissue obtained from patients undergoing endoscopic sinus surgery at Stanford Hospital and cultured as described in Vladar et al.
Cultures were treated with varying doses of semagacestat. DAPT (Abcam) was used ([…]) as a positive control for GSI activity. Cultures were labeled at ALI+21d with anti-acetylated α-tubulin (green) and ECAD (red) antibodies to mark cilia and epithelial junctions.
The ratio was defined as MCC number/total luminal cells. Counting was done on one representative image from 5 culture replicates from a single donor.

[3] = test system: Primary human airway epithelial cells; assay: MCC formation by timing of GSI treatment (proliferation, differentiation, continuous); assay type: cell-based
Description: Primary human airway epithelial cells were treated with DAPT and LY45139: i) during proliferation only (ALI-5 to -1d), ii) during differentiation only (ALI+0 to +21d) or iii) continuously during the entire culture duration, followed by labeling at ALI+21d with anti-acetylated α-Tubulin (green) and ECAD (red) antibodies.

[4] = test system: Mature (ALI+30d) primary human airway epithelial cells; assay: GSI treatment of mature (ALI+30d) cultures; assay type: cell-based; settings: mature cultures treated one (ALI+30 to +37d) or two weeks (ALI+30 to +44d)
Description: Mature (ALI+30d) primary human airway epithelial cells were treated with DAPT and semagacestat for one (ALI+30 to +37d) or two weeks (ALI+30 to +44d), then labeled with anti-acetylated α-Tubulin (green) and ECAD (red) antibodies.

[5] = test system: Primary human airway epithelial cells; assay: GSI treatment from the apical or basal surface; assay type: cell-based; settings: ALI+0 to +21d, apical or basal application
Description: Primary human airway epithelial cells were treated with DAPT and LY45139 during differentiation only (ALI+0 to +21d) from either the apical or basal surface, then labeled at ALI+21d with anti-acetylated α-Tubulin (green) and ECAD (red) antibodies. […] Apical treatment eliminates the air-liquid interface, which results in the poor epithelial structure and multiciliated cell differentiation in the untreated cultures, which is partially rescued by GSI treatment.

[6] = test system: HNEC cultures from a CF patient; assay: IL-13 induced chronic inflammation model in ALI HNEC cultures; assay type: cell-based, human; settings: DAPT 1 um, semagacestat 125 nm, days 14-21
Description: Administration of IL-13 to ALI cultures induces goblet cell hyperplasia and is a useful model of chronic inflammation. ALI HNEC cultures were prepared as described in Vladar et al. ALI cultures were treated with and without administration of Il-13 on days 7-14. DAPT (1 um), semagacestat (125 nm) or vehicle control were administered on days 14-21. PFA-fixed cultures were stained for Muc5AC (red; mucin producing secretory cells), Acetylated tubulin (green; MCCs) and E-Cadherin (blue to reveal cell boundaries).
HNEC cultures from a CF patient were treated with IL-13 from ALI+7 to 14 to induce inflammation. […] IL-13 treatment increases the percentage of mucin positive secretory cells and decreases the percentage of MCCs.

[7] = test system: healthy and CF primary human airway epithelial cultures; assay: SEM of cilia in healthy and CF cultures; assay type: cell-based; settings: healthy and CF cultures under DAPT vs untreated healthy cultures
[8] = test system: Mature (ALI+30d) primary cystic fibrosis human airway epithelial cells; assay: DAPT treatment of mature cystic fibrosis cultures; assay type: cell-based; settings: mature CF cultures, one week (ALI+30 to +37d)
Description: Mature (ALI+30d) primary cystic fibrosis human airway epithelial cells were treated with DAPT for one week (ALI+30 to +37d), then labeled with anti-acetylated α-Tubulin (green) and ECAD (red) antibodies.

[9] = test system: primary human epithelial cells; assay: Ciliary beat frequency and cilium length with DAPT; assay type: cell-based; settings: cells differentiated in the presence of DAPT vs untreated
CFTR = CFTR current in Ussing chambers, GSI with or without ETI; assay type: cell-based, human
Description: Cells grown at an air liquid interface were mounted on a holding slider and inserted on an Ussing chamber for electrophysiological short circuit current (Isc) measurements. Solutions in the serosal and mucosal bath were prepared so that a chloride gradient was established between both sides. After stable baseline current recordings were obtained, agonists were added in the following order: amiloride (10 µM) to block sodium channel activity, forskolin (10 µM) to stimulate CFTR, Ivacaftor (10 µM) to potentiate CFTR activity, and CFTRinh-172 (20 µM) to block CFTR current. For each agonist signals were monitored until a plateau in current was noted before adding the next agonist. The delta-Isc in response to CFTRinh-172 was used as our main read out for CFTR-mediated chloride transport.
We directly measured CFTR activity in cultures from CF patients treated with GSI with or without well-established effective in vitro doses of Trikafta (Elexcaftor/Tezacaftor/Ivacaftor or “ETI”). Veit, G., et al., JCI (2020) 10.1172/jci.insight.139983. Measurements were performed in Ussing chambers. […] In some individual experiments, there appeared to be a synergistic effect in the combination treatment: GSI alone has no effect but the combination treatment produced a greater response than ETI alone. This effect was not consistently seen, but raised the possibility that synergy might be observed with lower ETI doses.
To examine this further, we tested MK04752 in combination with varying doses of ETI (FIG. 28).

[10] = test system: Primary nasal epithelial cells from two CF donors (F508del homozygotes); assay: Ciliary beat frequency (CBF) in CF donor cultures, MK-0752 and Elexacaftor; assay type: cell-based, human; settings: MK-0752 125 nM or triple modulator with Elexacaftor 100 nM; p < 0.001
[11] = cited from earlier work

With `CC(C)(C(=O)NCC(F)(F)C(F)(F)F)C(=O)N[C@@H]1C(=O)Nc2ccccc2-c2ccccc21` [RO-4929097] the epithelial structure [1] was “disrupted epithelial structure”, the multiciliated cell formation [1] was “induced multiciliated cell formation” and the “Notch signaling and differentiation towards MCCs” value [1] was “effective in blocking Notch signaling, driving differentiation towards MCCs”.
With `CCC[C@H](N[C@H]1CCc2cc(F)cc(F)c2C1)C(=O)Nc1cn(C(C)(C)CNCC(C)(C)C)cn1` [nirogacestat, (S)-2-((S)-5,7-difluoro-1,2,3,4-tetrahydronaphthalen-3-ylamino)-N-(1-(2-m-ethyl-1-(neopentylamino)propan-2-yl)-1H-imidazol-4-yl)pentanamide] the epithelial structure [1] was “disrupted epithelial structure”, the multiciliated cell formation [1] was “induced multiciliated cell formation” and the “Notch signaling and differentiation towards MCCs” value [1] was “effective in blocking Notch signaling, driving differentiation towards MCCs”.
In the case of `C[C@H](NC(=O)Cc1cc(F)cc(F)c1)C(=O)NC(C(=O)OC(C)(C)C)c1ccccc1` (some centres unmarked) [DAPT], the “ratio MCC number/total luminal cells” value [2] is reported as “significant increases”, the MCC cell numbers ([3]; treatment during differentiation (differentiation only ALI+0 to +21d, and continuous)) is reported as “increased MCC cell numbers” and the effect on differentiation ([3]; treatment during proliferation only (ALI-5 to -1d)) is reported as “had no effect on differentiation”. The “formation of additional multiciliated cells” value [4] was “induces the formation of additional multiciliated cells”, the ciliated cell formation [5] was “induces ciliated cell formation via both apical and basal application” and the “percentage of MCCs” value ([6]; after IL-13 (ALI+7 to 14)) was “increasing the percentage of MCCs”. For the same compound, the “percentage of mucin positive secretory cells” value ([6]; after IL-13 (ALI+7 to 14)) was “decreasing the percentage of mucin positive secretory cells”, the “percentage of MCCs” value ([6]; controls without IL-13) was “increase the percentage off MCCs” and the “structure of multiciliated cells by SEM” value [7] was “indistinguishable from those in untreated healthy cultures”. The “formation of additional multiciliated cells” value [8] was “induces the formation of additional multiciliated cells in mature cystic fibrosis cultures”, the ciliary beat frequency [9] was “modest, but significant increase” and the cilium length [9] was “no difference”.
In the case of `O=C(O)CC[C@H]1CC[C@@](c2cc(F)ccc2F)(S(=O)(=O)c2ccc(Cl)cc2)CC1` [MK-0752], the epithelial structure [1] is reported as “disrupted epithelial structure”, the multiciliated cell formation [1] is reported as “induced multiciliated cell formation” and the “Notch signaling and differentiation towards MCCs” value [1] is reported as “effective in blocking Notch signaling, driving differentiation towards MCCs”. The “CFTR current with suboptimal doses of ETI” value (CFTR; MK04752 with varying (reduced Elexacaftor) doses of ETI) was “suboptimal doses of ETI appear to be potentiated by MK04752”, the “CFTR current induced by ETI” value (CFTR; cultures from CF patients, GSI plus ETI) was “Neither LY45139 (FIG. 26) nor MK04752 (FIG. 27) impaired the CFTR current” and the “ciliary beat frequency (CBF) vs control” value [10] was “significant effect in increasing the CBF”. The “most common drug-related toxicities” value ([11]; 450 to 4,200 mg, three schedules) was “diarrhea, nausea, vomiting, and fatigue” and the tolerability ([11]; weekly dosing) was “generally well-tolerated”.
